# System: not given
# Assay: not given
# Conditions: not given
row,Structure (SMILES),melting point
1,"Fc1cccc(Nc2nc(-c3cn[nH]c3)cs2)n1 [Compound 1-51, N-(6-Fluoropyridin-2-yl)-4-(1H-pyrazol-4-yl)thiazol-2-amine]",281 to 285 °C
2,"Cc1sc(Nc2ccccn2)nc1-c1cnn(C(=O)C(C)C)c1 [Compound 1-26, 2-Methyl-1-(4-(5-methyl-2-(pyridin-2-ylamino)thiazol-4-yl)-1H-pyrazol-1-yl)propan-1-one]",168 °C
3,"FC(F)(F)c1n[nH]cc1-c1nsc(Nc2ccccn2)n1 [Compound 1-10, N-(Pyridin-2-yl)-3-(3-(trifluoromethyl)-1H-pyrazol-4-yl)-1,2,4-thiadiazol-5-amine]",> 260 °C
4,"CCc1sc(Nc2ccccn2)nc1-c1cn[nH]c1 [Compound 1-22, 5-Ethyl-4-(1H-pyrazol-4-yl)-N-(pyridin-2-yl)thiazol-2-amine]",243 to 246 °C
5,"Cc1cccc(Nc2nc(-c3c[nH]nc3C)cs2)n1 [Compound 1-23, 4-(3-Methyl-1H-pyrazol-4-yl)-N-(6-methylpyridin-2-yl)thiazol-2-amine]",295 °C (dec.)
6,"Cc1sc(Nc2ccc(F)cn2)nc1-c1cn[nH]c1 [Compound 1-24, N-(5-Fluoropyridin-2-yl)-5-methyl-4-(1H-pyrazol-4-yl)thiazol-2-amine]",320 °C
7,"Cc1n[nH]cc1-c1nc(Nc2ccccn2)sc1C [Compound 1-15, 5-Methyl-4-(3-methyl-1H-pyrazol-4-yl)-N-(pyridin-2-yl)thiazol-2-amine]",218 °C
8,"Cc1n[nH]cc1-c1csc(Nc2cc(F)ccc2F)n1 [Compound 1-17, N-(2,5-Difluorophenyl)-4-(3-methyl-1H-pyrazol-4-yl)thiazol-2-amine]",196 to 199 °C
9,"c1ccc(Nc2nc(-c3cn[nH]c3)ns2)nc1 [Compound 1-35, 3-(1H-Pyrazol-4-yl)-N-(pyridin-2-yl)-1,2,4-thiadiazol-5-amine]",300 °C (dec.)
10,"Cc1sc(Nc2ccccn2)nc1-c1cnn(C(=O)NC2CC2)c1 [Compound 1-59, N-Cyclopropyl-4-(5-methyl-2-(pyridin-2-ylamino)thiazol-4-yl)-1H-pyrazole-1-carboxamide]",270 °C (dec.)
11,"Cc1ccnc(Nc2nc(-c3cn[nH]c3)c(C)s2)c1 [Compound 1-19, 5-Methyl-N-(4-methylpyridin-2-yl)-4-(1H-pyrazol-4-yl)thiazol-2-amine]",274 °C
12,"Clc1cccc(Nc2nc(-c3cn[nH]c3)ns2)n1 [Compound 1-42, N-(6-Chloropyridin-2-yl)-3-(1H-pyrazol-4-yl)-1,2,4-thiadiazol-5-amine]",317 to 319 °C
13,"Cc1sc(NC2CCCC2)nc1-c1cn[nH]c1 [Compound 1-37, N-Cyclopentyl-5-methyl-4-(1H-pyrazol-4-yl)thiazol-2-amine]",197 °C
14,"Cc1cccc(Nc2nc(-c3cn[nH]c3)c(Cl)s2)n1 [Compound 1-52, 5-Chloro-N-(6-methylpyridin-2-yl)-4-(1H-pyrazol-4-yl)thiazol-2-amine]",278 to 282 °C
15,"CC(C)C(=O)n1cc(-c2nsc(Nc3ccccn3)n2)cn1 [Compound 1-36, 2-Methyl-1-(4-(5-(pyridin-2-ylamino)-1,2,4-thiadiazol-3-yl)-1H-pyrazol-1-yl)propan-1-one]",248 to 254 °C
16,"Cc1n[nH]cc1-c1nsc(Nc2cccc(Cl)n2)n1 [Compound 1-41, N-(6-Chloropyridin-2-yl)-3-(3-methyl-1H-pyrazol-4-yl)-1,2,4-thiadiazol-5-amine]",285 °C (dec.)

row,Structure (SMILES),melting point
1,"Cc1cccc(Nc2nc(-c3c[nH]nc3C)ns2)n1 [Compound 1-40, 3-(3-Methyl-1H-pyrazol-4-yl)-N-(6-methylpyridin-2-yl)-1,2,4-thiadiazol-5-amine]",> 300 °C
2,"Cc1sc(Nc2cnccn2)nc1-c1cn[nH]c1 [Compound 1-39, 5-Methyl-N-(pyrazin-2-yl)-4-(1H-pyrazol-4-yl)thiazol-2-amine]",252 °C
3,Cc1sc(Nc2cccc(F)n2)nc1-c1cnn(C(N)=O)c1,230 °C (dec.)
4,"OCc1sc(Nc2ccccn2)nc1-c1cn[nH]c1 [Compound 1-57, (4-(1H-Pyrazol-4-yl)-2-(pyridin-2-ylamino)thiazol-5-yl)methanol]",250 °C (dec.)
5,"Cc1sc(Nc2ncc(F)cc2F)nc1-c1cn[nH]c1 [Compound 1-20, N-(3,5-Difluoropyridin-2-yl)-5-methyl-4-(1H-pyrazol-4-yl)thiazol-2-amine]",> 300 °C
6,"Cc1cccc(Nc2nc(-c3cn[nH]c3)ns2)n1 [Compound 1-38, N-(6-Methylpyridin-2-yl)-3-(1H-pyrazol-4-yl)-1,2,4-thiadiazol-5-amine]",276 °C
7,"Cc1sc(NC2CCCCC2)nc1-c1cn[nH]c1 [Compound 1-29, N-Cyclohexyl-5-methyl-4-(1H-pyrazol-4-yl)thiazol-2-amine]",205 to 207 °C
8,"Cc1sc(Nc2ccccn2)nc1-c1cnn(C(=O)C2CCCCC2)c1 [Compound 1-28, Cyclohexyl(4-(5-methyl-2-(pyridin-2-ylamino)thiazol-4-yl)-1H-pyrazol-1-yl)methanone]",140 to 144 °C
9,"CCc1cccc(Nc2nc(-c3cn[nH]c3)c(C)s2)n1 [Compound 1-48, N-(6-Ethylpyridin-2-yl)-5-methyl-4-(1H-pyrazol-4-yl)thiazol-2-amine]",276 to 278 °C
10,"Cc1sc(Nc2ccccn2)nc1-c1cnn(S(C)(=O)=O)c1 [Compound 1-45, 5-Methyl-4-(1-(methylsulfonyl)-1H-pyrazol-4-yl)-N-(pyridin-2-yl)thiazol-2-amine]",193 °C
11,"Cc1n[nH]cc1-c1nsc(Nc2ncc(F)cc2F)n1 [Compound 1-44, N-(3,5-Difluoropyridin-2-yl)-3-(3-methyl-1H-pyrazol-4-yl)-1,2,4-thiadiazol-5-amine]",> 300 °C
12,"Cc1ccnc(Nc2nc(-c3c[nH]nc3C)cs2)c1 [Compound 1-21, 4-(3-Methyl-1H-pyrazol-4-yl)-N-(4-methylpyridin-2-yl)thiazol-2-amine]",276 to 278 °C
13,"Cc1sc(Nc2ccccn2)nc1-c1cnn(C(=O)N2CCCCC2)c1 [Compound 1-34, (4-(5-Methyl-2-(pyridin-2-ylamino)thiazol-4-yl)-1H-pyrazol-1-yl)(piperidin-1-yl)methanone]",137 to 138 °C
14,"Fc1ccc(F)c(Nc2cccc(-c3cn[nH]c3)n2)c1 [Compound 2-1, N-(2,5-Difluorophenyl)-6-(1H-pyrazol-4-yl)pyridin-2-amine]",198 to 199 °C
15,"Cc1sc(Nc2ccccn2)nc1-c1cnn(C(=O)NC(C)C)c1 [Compound 1-50, N-Isopropyl-4-(5-methyl-2-(pyridin-2-ylamino)thiazol-4-yl)-1H-pyrazole-1-carboxamide]",297 to 298 °C
16,"Cc1cccc(Nc2nc(-c3cnn(C(=O)C(C)C)c3)c(C)s2)n1 [Compound 1-30, 2-Methyl-1-(4-(5-methyl-2-(6-methylpyridin-2-ylamino)thiazol-4-yl)-1H-pyrazol-1-yl)propan-1-one]",159 to 160 °C

# Biological target: T1, recombinant human mGluR4a receptors (Homo sapiens, UniProt Q14833)
# T1 construct: expressed in transfected cells
# T1 sequence (Q14833 33-912): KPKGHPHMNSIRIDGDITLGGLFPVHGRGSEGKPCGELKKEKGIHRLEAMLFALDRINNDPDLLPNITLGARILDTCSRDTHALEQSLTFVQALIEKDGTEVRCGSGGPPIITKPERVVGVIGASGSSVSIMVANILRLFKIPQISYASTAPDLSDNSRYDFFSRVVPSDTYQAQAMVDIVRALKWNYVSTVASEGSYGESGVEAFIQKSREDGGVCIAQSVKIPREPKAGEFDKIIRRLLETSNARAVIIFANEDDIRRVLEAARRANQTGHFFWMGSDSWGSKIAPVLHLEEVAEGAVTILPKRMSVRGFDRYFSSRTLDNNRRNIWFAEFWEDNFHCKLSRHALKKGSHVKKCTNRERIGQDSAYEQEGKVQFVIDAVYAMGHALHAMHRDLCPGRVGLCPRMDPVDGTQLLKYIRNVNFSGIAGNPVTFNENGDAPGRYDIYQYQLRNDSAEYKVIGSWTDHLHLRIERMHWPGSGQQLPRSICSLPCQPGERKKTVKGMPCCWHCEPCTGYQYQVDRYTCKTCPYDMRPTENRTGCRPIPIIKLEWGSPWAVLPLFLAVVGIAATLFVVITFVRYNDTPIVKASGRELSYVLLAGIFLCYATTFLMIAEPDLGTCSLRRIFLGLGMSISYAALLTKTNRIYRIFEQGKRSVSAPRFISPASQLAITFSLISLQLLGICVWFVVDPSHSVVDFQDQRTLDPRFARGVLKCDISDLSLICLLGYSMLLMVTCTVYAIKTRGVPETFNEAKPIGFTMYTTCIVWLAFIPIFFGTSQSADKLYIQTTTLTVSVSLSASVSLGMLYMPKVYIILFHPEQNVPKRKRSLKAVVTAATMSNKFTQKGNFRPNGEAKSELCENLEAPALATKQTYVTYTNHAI
# Assay: mGluR4 assay on HEK-expressing human mGluR4 (fluorescent cell based Ca2+ mobilization assay, FLIPR)
# Conditions: HEK-293 cells expressing hmGluR4; enhancement of EC25 glutamate response; mean of at least three independent experiments in duplicate; read-out: Ca^2+ Flux (mean EC50)
# Text: mGluR4 Assay on HEK-Expressing Human mGluR4 The compounds of the present invention are positive allosteric modulators of mGluR4 receptor. Their activity was examined on recombinant human mGluR4a receptors by detecting changes in intracellular Ca^2+ concentration, using the fluorescent Ca^2+-sensitive dye Fluo-4-(AM) and a Fluorometric Imaging Plate Reader (FLIPR, Molecular Devices, Sunnyvale, Calif.) The cDNA encoding the human metabotropic glutamate receptor (hmGluR4), (accession number NM_000841.1, NCBI Nucleotide database browser), was subcloned into an expression vector containing also the hygromycin resistance gene. In parallel, the cDNA encoding a G protein allowing redirection of the activation signal to intracellular calcium flux was subcloned into a different expression vector containing also the puromycin resistance gene. Transfection of both these vectors into HEK293 cells with PolyFect reagent (Qiagen) according to supplier's protocol, and hygromycin and puromycin treatment allowed selection of antibiotic resistant cells which had integrated stably one or more copies of the plasmids. Positive cellular clones expressing hmGluR4 were identified in a functional assay measuring changes in calcium fluxes in response to glutamate or selective known mGluR4 orthosteric agonists and antagonists. HEK-293 cells expressing hmGluR4 were maintained in media containing DMEM, dialyzed Fetal Calf Serum (10%), Glutamax™ (2 mM), Penicillin (100 units/mL), Streptomycin (100 μg/mL), Geneticin (100 μg/mL) and Hygromycin-B (40 μg/mL) and puromycin (1 μg/mL) at 37° C./5% CO2. Human mGluR4 HEK-293 cells were plated out 24 hours prior to FLIPR^384 assay in black-walled, clear-bottomed, poly-L-ornithine-coated 384-well plates at a density of 25,000 cells/well in a glutamine/glutamate free DMEM medium containing foetal bovine serum (10%), penicillin (100 units/mL) and streptomycin (100 μg/mL) at 37 C/5% CO2. On the day of the assay, the medium was aspirated and the cells were loaded with a 3 μM solution of Fluo-4-AM (LuBioScience, Lucerne, Switzerland) in 0.03% pluronic acid. After 1 hour at 37 C/5% CO2, the non incorporated dye was removed by washing cell plate with the assay buffer and the cells were left in the dark at room temperature for six hours before testing. All assays were performed in a pH 7.4 buffered-solution containing 20 mM HEPES, 143 mM NaCl, 6 mM KCl, 1 mM MgSO4, 1 mM CaCl2, 0.125 mM sulfapyrazone, 0.1% glucose. After 10 s of basal fluorescence recording, various concentrations of the compounds of the invention were added to the cells. Changes in fluorescence levels were first monitored for 180 s in order to detect any agonist activity of the compounds. Then the cells were stimulated by an EC25 glutamate concentration for an additional 110 s in order to measure enhancing activities of the compounds of the invention. EC25 glutamate concentration is the concentration giving 25% of the maximal glutamate response. The concentration-response curves of representative compounds of the present invention were generated using the Prism GraphPad software (Graph Pad Inc, San Diego, USA). The curves were fitted to a four-parameter logistic equation: (Y=Bottom+(Top−Bottom)/(1+10^((Log EC50−X)*Hill Slope) allowing the determination of EC50 values. The Table 5 below represents the mean EC50 obtained from at least three independent experiments of selected molecules performed in duplicate.
row,Structure (SMILES),EC50 [nM]
1,"Fc1cccc(Nc2nc(-c3cn[nH]c3)cs2)n1 [Compound 1-51, N-(6-Fluoropyridin-2-yl)-4-(1H-pyrazol-4-yl)thiazol-2-amine]",< 500
2,"FC(F)(F)c1n[nH]cc1-c1nsc(Nc2ccccn2)n1 [Compound 1-10, N-(Pyridin-2-yl)-3-(3-(trifluoromethyl)-1H-pyrazol-4-yl)-1,2,4-thiadiazol-5-amine]",500 to 1000
3,"Cc1n[nH]cc1-c1nsc(Nc2ccccc2)n1 [Compound 1-1, 3-(3-methyl-1H-pyrazol-4-yl)-N-phenyl-1,2,4-thiadiazol-5-amine]",1000 to 10000
4,"Fc1sc(Nc2ccccn2)nc1-c1cn[nH]c1 [Compound 1-56, 5-Fluoro-4-(1H-pyrazol-4-yl)-N-(pyridin-2-yl)thiazol-2-amine]",< 500
5,"Cc1n[nH]cc1-c1nsc(Nc2ccccc2F)n1 [Compound 1-4, N-(2-Fluorophenyl)-3-(3-methyl-1H-pyrazol-4-yl)-1,2,4-thiadiazol-5-amine]",500 to 1000
